Reference: PubChem BioAssay AID1918938 (Molecular Pharmacology Branch, DTP, NCI, 2023)

Tested on: 556581-035-R-J1-PDC complex spheroid viability
Assay: Anticancer human tumor 556581-035-R-J1-PDC patient-derived ovarian carcinoma cell line growth inhibition
Details: for IC50: curve of first compound; for viability, T/C: stronger effect = lower value
How it was run: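 Complex spheroids of tumor cells with HUVEC and human MSCs, exposed to iadademstat combined with other agents. Each agent tested in half-log steps from near clinical Cmax (else 10 microM top), DMSO ≤0.25%.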

[1] = second compound 0.1 µM, first compound 0.0316 µM
[2] = second compound 0.1 µM, first compound 0.1 µM
[3] = second compound 0.1 µM, first compound 0.316 µM
[4] = second compound 0.1 µM, first compound 1 µM
[5] = second compound 0.1 µM, first compound 3.16 µM
[6] = second compound 0.1 µM, first compound 10 µM
[7] = second compound 0.316 µM, first compound 0.0316 µM
[8] = second compound 0.316 µM, first compound 0.1 µM
[9] = second compound 0.316 µM, first compound 0.316 µM
[10] = second compound 0.316 µM, first compound 1 µM
[11] = second compound 0.316 µM, first compound 3.16 µM
[12] = second compound 0.316 µM, first compound 10 µM
[13] = second compound 1 µM, first compound 0.0316 µM
[14] = second compound 1 µM, first compound 0.1 µM
[15] = second compound 1 µM, first compound 0.316 µM
[16] = second compound 1 µM, first compound 1 µM
[17] = second compound 1 µM, first compound 3.16 µM
[18] = second compound 1 µM, first compound 10 µM
[19] = second compound 3.16 µM, first compound 0.0316 µM
[20] = second compound 3.16 µM, first compound 0.1 µM
[21] = second compound 3.16 µM, first compound 0.316 µM
[22] = second compound 3.16 µM, first compound 1 µM
[23] = second compound 3.16 µM, first compound 3.16 µM
[24] = second compound 3.16 µM, first compound 10 µM
[25] = second compound 10 µM, first compound 0.0316 µM
[26] = second compound 10 µM, first compound 0.1 µM
[27] = second compound 10 µM, first compound 0.316 µM
[28] = second compound 10 µM, first compound 1 µM
[29] = second compound 10 µM, first compound 3.16 µM
[30] = second compound 10 µM, first compound 10 µM
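Also: spheroids exposed to agents for seven days.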
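For viability, T/C in this document: 100% = DMSO vehicle control wells.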

Structure (SMILES) | IC50 (second compound 0.1 µM) [µM] | IC50 (second compound 0.316 µM) [µM] | IC50 (second compound 1 µM) [µM] | IC50 (second compound 3.16 µM) [µM] | IC50 (second compound 10 µM) [µM] | viability, T/C [1] [%] | viability, T/C [2] [%] | viability, T/C [3] [%] | viability, T/C [4] [%] | viability, T/C [7] [%] | viability, T/C [8] [%] | viability, T/C [9] [%] | viability, T/C [10] [%] | viability, T/C [13] [%] | viability, T/C [14] [%] | viability, T/C [15] [%] | viability, T/C [16] [%] | viability, T/C [19] [%] | viability, T/C [20] [%] | viability, T/C [21] [%] | further results
CC(C)c1c(-c2ccccc2)nc2c(C#N)c[nH]n2c1=O + NC1CC1c1ccc(-c2cccc(O)c2)cc1 | > 10 | > 10 | > 10 | > 10 | > 10 | 100 | 103 | 95.8 | 89.3 | 90.6 | 82.5 | 86.4 | 85.2 | 96.4 | 101 | 79.7 | 76.5 | 85.6 | 82.5 | 84.8 | viability, T/C [5]: 88.8%; viability, T/C [6]: 64%; viability, T/C [11]: 73.6%; viability, T/C [12]: 79.9%; viability, T/C [17]: 69.8%; viability, T/C [18]: 60.2%; viability, T/C [22]: 86.7%; viability, T/C [23]: 77.9%; viability, T/C [24]: 69.3%; viability, T/C [25]: 92.6%; viability, T/C [26]: 91.2%; viability, T/C [27]: 89.4%; viability, T/C [28]: 75.4%; viability, T/C [29]: 66.1%; viability, T/C [30]: 59.6%
CC1COCCN1c1cc(-c2ccnn2C)c2ccnc(-c3ccn[nH]3)c2n1 (stereo not given) + NC1CC1c1ccc(-c2cccc(O)c2)cc1 | 0.00522 | 0.00445 | 0.0033 | 0.00531 | 0.00898 | 33.5 | 25.4 | 21.7 | 10.2 | 33.4 | 23.8 | 23 | 10.6 | 34.3 | 26.4 | 26.1 | 9.41 | 38.5 | 29.2 | 26.9 | viability, T/C (second compound 0.1 µM, first compound 0.00316 µM): 54.8%; viability, T/C (second compound 0.1 µM, first compound 0.01 µM): 44%; viability, T/C (second compound 0.316 µM, first compound 0.00316 µM): 51.2%; viability, T/C (second compound 0.316 µM, first compound 0.01 µM): 47.9%; viability, T/C (second compound 1 µM, first compound 0.00316 µM): 49.5%; viability, T/C (second compound 1 µM, first compound 0.01 µM): 47.1%; viability, T/C (second compound 3.16 µM, first compound 0.00316 µM): 54.6%; viability, T/C (second compound 3.16 µM, first compound 0.01 µM): 44.5%; viability, T/C [22]: 11%; viability, T/C (second compound 10 µM, first compound 0.00316 µM): 55.3%; viability, T/C (second compound 10 µM, first compound 0.01 µM): 49.9%; viability, T/C [25]: 36.4%; viability, T/C [26]: 29.7%; viability, T/C [27]: 26%; viability, T/C [28]: 25.6%
CC1COCCN1c1cc(C2(S(C)(=N)=O)CC2)nc(-c2ccnc3[nH]ccc23)n1 (stereo not given) + NC1CC1c1ccc(-c2cccc(O)c2)cc1 | 5.95 | 5.94 | 5.37 | > 10 | > 10 | 101 | 98.6 | 78.9 | 72.3 | 95.3 | 85.5 | 77.8 | 70.7 | 87.9 | 88.9 | 84.3 | 77.4 | 87.9 | 96 | 85.5 | viability, T/C [5]: 52.5%; viability, T/C [6]: 46.7%; viability, T/C [11]: 52.6%; viability, T/C [12]: 46.3%; viability, T/C [17]: 53.7%; viability, T/C [18]: 45.5%; viability, T/C [22]: 70.5%; viability, T/C [23]: 54.2%; viability, T/C [24]: 50.9%; viability, T/C [25]: 88.4%; viability, T/C [26]: 84.8%; viability, T/C [27]: 78.3%; viability, T/C [28]: 69.7%; viability, T/C [29]: 51.3%; viability, T/C [30]: 54.7%
